Assay results reported in patent publication US11859248B2, “Nucleic acid modification and identification method” (IMBA—INSTITUT FÜR MOLEKULARE BIOTECHNOLOGIE GMBH, priority 2017, dated 2024).

What was measured:
MOLM-13 cells = experiment: SLAM-seq transcriptional response to NVP-2 and JQ1 in MOLM-13 cells; format: cell-based, human
Description: (§1) All SLAM-seq assays were performed at 60-70% confluency for adherent cells or 60% of the maximum cell density counted on a hemocytometer for suspension cells. 5-7 h prior to each assay, growth medium was aspirated and replaced. Unless stated otherwise, cells were pre-treated with indicated small molecule inhibitors or 100 μM IAA for 30 minutes to pre-establish full target inhibition or degradation. Newly synthesized RNA was labeled for indicated time spans (45′ or 60′) at a final concentration of 100 μM 4-thiouridine (s^4U, Carbosynth). Adherent cells were harvested by direct snap-freezing of plates on dry ice. Suspension cells were spun down and immediately snap-frozen. RNA extraction was performed using the RNeasy Plus Mini Kit (Qiagen). Total RNA was subjected to alkylation by iodoacetamide (Sigma, 10 mM) for 15′ and RNA was re-purified by ethanol precipitation. […]
(§2) All other SLAM-seq experiments were performed in triplicates and analyzed as follows. Differential gene expression calling was performed on raw read counts with 2 T>C conversions using DESeq2 (version 1.14.1) with default settings, and with size factors estimated on corresponding total mRNA reads for global normalization. […]

Pol2-S2 phosphorylation [1] = experiment: Pol2-S2 phosphorylation after BETi treatment in K562 cells; format: cell-based, human; conditions: high-dose (1 or 5 μM)
Description: (§3) Chemiluminescent detection of primary antibodies was performed using HRP-conjugated secondary antibodies (Cell Signaling Technology, catalog numbers #7074, #7076 and #7077). Alternatively, fluorescence detection of rabbit and mouse primary antibodies was performed on an Odyssey CLx Imaging System (LI-COR Biosciences) using secondary antibodies IRDye 680RD Goat anti-Rabbit IgG and IRDye 800CW Goat anti-Mouse IgG (LI-COR Biosciences).
(§4) While these findings are in line with the promiscuous binding of BRD4 to active TSS and its physical interaction with core transcriptional machinery, they contrast selective effects observed after BETi treatment in conventional expression analysis. To define immediate transcriptional effects of BETi and compare them to BRD4 degradation, we performed SLAM-seq following treatment with different doses of the BETi JQ1 in K562 cells and the acute myeloid leukemia (AML) cell line MV4-11.

Pol2-S2 phosphorylation [2] = experiment: Pol2-S2 phosphorylation after BETi treatment in MV4-11 cells; format: cell-based, human; conditions: high-dose (1 or 5 μM)
Description: as §3, §4

MV4-11 = experiment: SLAM-seq transcriptional response in MV4-11 cells; format: cell-based, human; conditions: high-dose (1 or 5 μM)
Description: as §1, §2

K562 cells = experiment: SLAM-seq transcriptional response in K562 cells; format: cell-based, human
Description: as §1, §2

[3] = system: reverse transcriptases (Superscript II, Superscript III, Quant-seq RT); experiment: Reverse transcription of synthetic thiol-nucleotide-containing RNA followed by high-throughput sequencing; format: biochemical; conditions: s^6G-containing RNA
Description: Primer extension assays were essentially performed as described previously by Nilsen et al. (Cold Spring Harb Protoc. 2013, 1182-1185). Briefly, template RNA oligonucleotides (5L-let-7-3L or 5L-let-7-s^4Up9-3L; Dharmacon; see Table for sequences) were deprotected according to the instructions of the manufacturer and purified by denaturing polyacrylamide gel-elution. 100 μM purified RNA oligonucleotides were treated with 10 mM iodoacetamide (+IAA) or EtOH (−IAA) in standard reaction conditions (50% DMSO, 50 mM sodiumphosphate buffer, pH 8) for 15 min at 50° C. The reaction was stopped by addition of 20 mM DTT, followed by ethanol precipitation. RT primer (see Table for sequence) was 5′ radiolabeled using γ-^32P-ATP (Perkin-Elmer) and T4-polynucleotide kinase (NEB), followed by denaturing polyacrylamide gel-purification. 640 nM γ-^32P-RT primer was annealed to 400 nM 5L-let-7-3L or 5L-let-7-s^4Up9-3L in 2× annealing buffer (500 mM KCl, 50 mM Tris pH 8.3) in a PCR machine (3 min 95° C., 30 sec 85° C. Ramp 0.5° C./s, 5 min 25° C. Ramp 0.1° C./s). Reverse transcription was performed using Superscript II (Invitrogen), Superscript III (Invitrogen), or Quant-seq RT (Lexogen) as recommended by the manufacturer. For dideoxynucleotide reactions, a final concentration of 500 μM ddNTP (as indicated) was added to RT reactions. Upon completion, RT reactions were resuspended in formamide loading buffer (Gel loading buffer II, Thermo Fisher Scientific) and subjected to 12.5% denaturing polyacrylamide gel electrophoresis. Gels were dried, exposed to storage phosphor screen (PerkinElmer), imaged on a Typhoon TRIO variable mode imager (Amersham Biosciences), and quantified using ImageQuant TL v7.0 (GE Healthcare). […]
For sequencing analysis of synthetic RNA samples (FIG. 5) barcoded libraries were demultiplexed using Picard Tools BamIndexDecoder v1.13 allowing 0 mismatches in the barcode. […] Remaining aligned reads were converted to pileup format. […] Output table was analyzed and plotted in Excel v15.22 (Microsoft) and Prism v7.0a (GraphPad). […]

BRD4 = experiment: Auxin-inducible degradation of AID-tagged BRD4 in K562 cells (immunoblotting); format: cell-based, human; conditions: AID-tagged K562 cells expressing Tir1
MYC [4] = experiment: Auxin-inducible degradation of AID-tagged MYC in HCT116 cells (immunoblotting); format: cell-based, human; conditions: TIR1-expressing HCT116 MYC-AID cells
MYC [5] = experiment: Auxin-inducible degradation of AID-tagged MYC in K562 cells (immunoblotting); format: cell-based, human; conditions: Tir1-expressing
Superscript II = target: T1, Superscript II (Moloney murine leukemia virus, UniProt P03355, D1183G/D1242N/E1221Q); experiment: pH-dependent reverse transcription of 5BrU-containing RNA oligonucleotide measured by sequencing; format: biochemical
T1 construct: purchased Thermo Fisher Scientific
Description: Further, it has been shown that 5BrU is taken up by cells, phosphorylated, and incorporated into nascent RNA (Larsen et al., Current Protocols in Cytometry. 12 (7.12): 7.12.1-7.12.11, 2001). […] We used […] of the synthetic RNA oligonucleotide which contained a 5BrU modification at a single central position. […] The reverse transcription was performed by Superscript II (Thermo Fisher Scientific) according to the instructions of the manufacturer using the RT DNA oligonucleotide primer (5″-[…]-3″, SEQ ID NO: 9) and 5×RT buffer for which pH was adjusted to pH7, pH8, or pH9, respectively. After reverse transcription, […] reverse transcription product was subjected to PCR amplification using KAPA Real-time Library Amplification Kit (KAPA Biosystems) according to the instructions of the manufacturer, using the DNA oligonucleotides Solexa PCR Fwd (5″-[…]-3′, SEQ ID NO: 10) and Solexa IDX rev (5′-[…]-3′, SEQ ID NO: 11; NNNNNN indicates the position of the barcode-nucleotides). The amplified libraries were sequenced by high-throughput sequencing using the Illumina MiSeq platform. The conversion rates for the 5BrU nucleotide were determined by counting the frequency of nucleotide A (adenine), G (guanine), and C (cytosine) other than the expected majority readout of T (thymine) at the position of 5BrU.
The pH-dependent conversion rates of 5BrU, or T in the final readout, to A (T>A conversion) show a 1.1-fold and 1.4-fold increase with an increase of pH during reverse transcription to pH 8 and pH 9 respectively compare to the background conversion rate of 3·10^−4 at pH 7 (FIG. 37C). The T>G conversion increases by 1.2- and 1.9-fold compare to the lower background conversion rate of 1·10^−4 at pH 7. In contrast, the T>C conversion rate increases by 2.2-fold and 4.3-fold compare to the background conversion rate of 3·10^−4 at pH 7. The signature of the pH dependent changes in conversion rates is characteristic for the 5BrU in the RNA and can be used to identify the number of 5BrU which are incorporated into nascent RNA during transcription.

COC[C@@H](C)NC1CCC(Nc2cc(-c3cccc(NCC4(C#N)CCOCC4)n3)c(Cl)cn2)CC1 (some centres unmarked) [NVP-2]
transcriptional response (MOLM-13 cells; high-dose, 60 nM): globally suppressed transcription
transcriptional response (MOLM-13 cells; intermediate dose, 6 nM): selective transcriptional responses

Cc1sc2c(c1C)C(c1ccc(Cl)cc1)=N[C@@H](CC(=O)OC(C)(C)C)c1nnc(C)n1-2 [JQ1]
Pol2-S2 phosphorylation (Pol2-S2 phosphorylation [1]): globally reduced Pol2-S2 phosphorylation
Pol2-S2 phosphorylation (Pol2-S2 phosphorylation [2]): globally reduced Pol2-S2 phosphorylation
direct transcriptional response (MV4-11): broadly suppressed transcription
direct transcriptional response (K562 cells; 200 nM): selective deregulation of a small number of transcripts
direct transcriptional response (K562 cells; high-dose (1 or 5 μM)): broadly suppressed transcription

4-thiouridine [s^4U]
conversion observed [3]: G to A conversion

O=C(O)Cc1c[nH]c2ccccc12 [auxin, indole-3-acetic acid]
time to near complete degradation of BRD4 (BRD4): ≤ 30 ′
time to complete degradation of MYC (MYC [4]): less than 30 ′
time to degradation of MYC (MYC [5]): less than 30 ′

O=c1[nH]c(=O)n([C@@H]2O[C@H](CO)[C@@H](O)[C@H]2O)cc1Br [5BrU, 5-Bromouridine]
T>A background conversion rate (Superscript II; pH 7): 3·10^−4
T>C background conversion rate (Superscript II; pH 7): 3·10^−4
T>G background conversion rate (Superscript II; pH 7): 1·10^−4
increase of T>A conversion rate relative to pH 7 (Superscript II; pH 8): 1.1 fold
increase of T>C conversion rate relative to pH 7 (Superscript II; pH 8): 2.2 fold
increase of T>G conversion rate relative to pH 7 (Superscript II; pH 8): 1.2 fold
increase of T>A conversion rate relative to pH 7 (Superscript II; pH 9): 1.4 fold
increase of T>C conversion rate relative to pH 7 (Superscript II; pH 9): 4.3 fold
increase of T>G conversion rate relative to pH 7 (Superscript II; pH 9): 1.9 fold
